Legend:
[1] = tested on: splenocytes of DR1 transgenic mice; assay: Oral APL A12: IFNγ production by cultured splenocytes of DR1 transgenic mice; assay type: in vivo, mouse
[2] = tested on: Peyer's Patch cells of DR1 TCRtg+/+ mice; assay: Oral APL A12: IL-17 and IL-10 in cultures of Peyer's Patch cells of DR1 TCRtg+/+ mice; assay type: in vivo, mouse
[3] = tested on: patients with recent onset of type 1 diabetes mellitus; details: IFNγ and IL-5 ELISPOT, weeks 0-26; cited from earlier work
patients with RA = details: cited from earlier work
[4] = tested on: murine models of oral tolerance; assay: Murine models of oral tolerance; details: mouse, in vivo
From the text: A form of CII based therapy has been tried in patients with RA and juvenile RA by administering intact native chick or bovine CII to patients. Seven trials of treatment with oral CII have been reported including two of our own. […] Most patients in these studies also received NSAIDs which block oral tolerance and systemic tolerance. The use of NSAIDS might have been responsible for the mixed results of oral CII in RA. […] Furthermore, we have applied these crucial data in designing oral tolerance trials in humans. We can down regulate with oral CII, PBMC production of IFNγ to α1(II) in RA patients who take NSAIDS plus misoprostol and/or DMARDS and anti-TNFα therapies. Oral administration of low dose antigen generates regulatory T cells, which act in the respective microenvironment in a non-antigen specific manner by producing down-regulatory cytokines such as IL4, IL10 and TGFbeta, a Th2/Th3 cytokine pattern.

DR1 Transgenic mice = assay: Effect of A12 on CIA in DR1 Transgenic mice (CII plus A12; intravenous A12 after CII-immunization); assay type: in vivo, mouse
Description: Assuming that CII263-270 was key to developing immunity to the intact CII molecule, a number of analog peptides where amino acids within this small segment were substituted with those found in the corresponding sites of nonarthritogenic type I collagen were prepared and tested. […] The APL A12 developed for this study has the following amino acid sequence: LGPKGQTGEBG[IAGNKGDQGPK]GEBGPA (SEQ ID NO: 3) where B=hydroxproline. The core determinant of human CII263-270 is bracketed. The underlined residues are those substituted to produce APL A12. The residues amino terminal and carboxy terminal to the core determinant is from the normal human CII sequence.

[5] = mice gavaged with 50 μg CII263-270 9 times over 2 weeks, cells cultured with PBS
[6] = mice gavaged with 50 μg CII263-270, cells cultured with APL A12 50 μg/ml
[7] = mice gavaged with 50 μg CII263-270, cells cultured with CII263-270 50 μg/ml
[8] = mice gavaged with PBS, cells cultured with CII263-270 50 μg/ml

In the case of “FKGEQGPK [CII263-270, reference compound]”, the “IFNγ Levels in Splenocyte Culture” value ([1]; mice gavaged with 50 μg CII263-270 8 times over 2 weeks, splenocytes cultured with PBS) is reported as 68 ± 85 pg/mL, the “IFNγ Levels in Splenocyte Culture” value ([1]; mice gavaged with 50 μg CII263-270, splenocytes cultured with APL A12 50 μg/ml) is reported as 80 ± 52 pg/mL and the “IFNγ Levels in Splenocyte Culture” value ([1]; mice gavaged with 50 μg CII263-270, splenocytes cultured with CII263-270 50 μg/ml) is reported as 124 ± 84 pg/mL. The “IFNγ Levels in Splenocyte Culture” value ([1]; mice gavaged with PBS, splenocytes cultured with CII263-270 50 μg/ml) was 280 ± 222 pg/mL, the “II-10 Levels in Peyer's Patch Cultures” value [2, 5] was 15 pg/mL and the “IL-17 Levels in Peyer's Patch Cultures” value [2, 5] was 11 pg/mL. The “II-10 Levels in Peyer's Patch Cultures” value [2, 6] was 35 pg/mL, the “IL-17 Levels in Peyer's Patch Cultures” value [2, 6] was 62 pg/mL and the “II-10 Levels in Peyer's Patch Cultures” value [2, 7] was 15 pg/mL. For the same molecule, the “IL-17 Levels in Peyer's Patch Cultures” value [2, 7] was 256 pg/mL, the “II-10 Levels in Peyer's Patch Cultures” value [2, 8] was 45 pg/mL and the “IL-17 Levels in Peyer's Patch Cultures” value [2, 8] was 30 pg/mL.

For SHLVEALALVAGERG [NBI-6024], the “PBMC ELISPOT responses to B(9-23) epitope and NBI-6024” value [3] is given as “induced, predominantly Th2 responses”.

For “[O]QKRAAYDQ[U]YGHAAFE (QKRAAYDQYGHAAFE; Synthetic peptide dnaJP1) [synthetic peptide derived from bacterial heat shock protein]”, the cytokine profile (patients with RA; CD3+ cells, oral, six months) is given as “switch in the cytokine profile from Th1 to Th2”, the tolerability (patients with RA; oral 0.25, 2.5 and 25 mg per day for six months) is given as “well tolerated and no significant side effects occurred” and the worsening of arthritis (patients with RA; oral, six months) is given as “no worsening of arthritis”.

With etanercept the oral tolerance induction [4] was “do not block oral tolerance induction”.

B1: Ova: control antigen given intravenously in Table I (protein, UniProt P01012 2-386, looked up)
Ovalbumin: GSIGAASMEFCFDVFKELKVHHANENIFYCPIAIMSALAMVYLGAKDSTRTQINKVVRFDKLPGFGDSIEAQCGTSVNVHSSLRDILNQITKPNDVYSFSLASRLYAEERYPILPEYLQCVKELYRGGLEPINFQTAADQARELINSWVESQTNGIIRNVLQPSSVDSQTAMVLVNAIVFKGLWEKAFKDEDTQAMPFRVTEQESKPVQMMYQIGLFRVASMASEKMKILELPFASGTMSMLVLLPDEVSGLEQLESIINFEKLTEWTSSNVMEERKIKVYLPRMKMEEKYNLTSVLMAMGITDVFSSSANLSGISSAESLKISQAVHAAHAEINEAGREVVGSAEAGVDAASVSEEFRADHPFLFCIKHIATNAVLFFGRCVSP
For B1, the “Antibodies to CII” value (DR1 Transgenic mice; 1 mg total i.v.) was 42 ± 10 and the Incidence (DR1 Transgenic mice; arthritis incidence, 1 mg total i.v. on days 10, 12, 14 after CII-immunization) was 7/10.

Source: US9144595B2, “APLs for treating arthritis” (University of Tennessee Research Foundation, priority 2009, dated 2015)
